Patent US9006232B2, “Pyrimidone derivatives” (Mitsubishi Tanabe Pharma Corporation, priority 2009, dated 2015)
pIC50: −log10 of the molar value.

target: bovine cerebral TPK1 (Bos taurus, UniProt A0A059UE90); test: Inhibitory activity against P-GS1 phosphorylation by bovine cerebral TPK1; type: biochemical; settings: P-GS1 phosphorylation, 41.7 μM [γ-32P] ATP, 25° C., 2 hours; read-out: IC50
Description: Inhibitory Activity of the Medicament of the Present Invention Against P-GS1 Phosphorylation by Bovine Cerebral TPK1 […] The phosphorylation was started by adding ATP, and the reaction was conducted at 25° C. for 2 hours, and then stopped by adding 21% perchloric acid on ice cooling. The reaction mixture was centrifuged at 12,000 rpm for 5 minutes and adsorbed on P81 paper (Whatmann), and then the paper was washed four times with 75 mM phosphoric acid, three times with water and once with acetone. The paper was dried, and the residual radioactivity was measured using a liquid scintillation counter.

Chain of bovine cerebral TPK1 (A0A059UE90 1-419): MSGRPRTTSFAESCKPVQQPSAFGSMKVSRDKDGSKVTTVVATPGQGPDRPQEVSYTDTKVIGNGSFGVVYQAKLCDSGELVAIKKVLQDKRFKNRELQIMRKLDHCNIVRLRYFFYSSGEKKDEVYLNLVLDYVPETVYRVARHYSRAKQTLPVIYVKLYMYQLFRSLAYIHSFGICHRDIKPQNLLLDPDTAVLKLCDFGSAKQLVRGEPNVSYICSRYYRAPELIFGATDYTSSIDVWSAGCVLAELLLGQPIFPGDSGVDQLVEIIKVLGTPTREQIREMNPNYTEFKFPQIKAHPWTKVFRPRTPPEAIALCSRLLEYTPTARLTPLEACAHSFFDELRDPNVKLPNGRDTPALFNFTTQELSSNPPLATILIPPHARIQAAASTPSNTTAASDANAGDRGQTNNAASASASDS

| SMILES | pIC50 |
| --- | --- |
| Cn1c(OC2CCCN(c3ccccc3F)C2)nc(-c2ccncn2)cc1=O (centres unmarked) [1.103, 2-[1-(2-Fluoro-phenyl)piperidin-3-yloxy]-1-methyl-1H-[4,4′] bipyrimidinyl-6-one] | 7.31 |
| Cn1c(OC2CCCN(c3ccc(F)cc3)C2)nc(-c2ccncn2)cc1=O (centres unmarked) [1.105, 2-[1-(4-Fluoro-phenyl)piperidin-3-yloxy]-1-methyl-1H-[4,4′] bipyrimidinyl-6-one] | 7.21 |
| COc1ccc(N2CCCC(Oc3nc(-c4ccncn4)cc(=O)n3C)C2)cc1 (centres unmarked) [1.107, 2-[1-(4-Methoxy-phenyl)piperidin-3-yloxy]-1-methyl-1H-[4,4′]bipyrimidinyl-6-one] | 7.01 |
| Cn1c(OC2CCCN(S(=O)(=O)c3ccccc3)C2)nc(-c2ccncn2)cc1=O (centres unmarked) [1.109, 2-(1-Benzenesulfonyl-piperidin-3-yloxy)-1-methyl-1H-[4,4′] bipyrimidinyl-6-one] | 7.12 |
| Cn1c(OC2CCN(C(=O)OCc3ccccc3)CC2)nc(-c2ccncn2)cc1=O [1.110, Benzyl 4-(1-methyl-6-oxo-1,6-dihydro-[4,4′]bipyrimidinyl-2-yloxy) piperidine-1-carboxylate] | 6.85 |
| Cc1ccc(S(=O)(=O)N2CCC(Oc3nc(-c4ccncn4)cc(=O)n3C)CC2)cc1 [1.111, 1-Methyl-2-[1-(toluene-4-sulfonyl)piperidin-4-yloxy]-1H-[4,4′] bipyrimidinyl-6-one] | 6.71 |
| Cn1c(OC2CCN(C(=O)Oc3ccccc3)CC2)nc(-c2ccncn2)cc1=O [1.112, Phenyl 4-(1-methyl-6-oxo-1,6-dihydro-[4,4′]bipyrimidinyl-2-yloxy) piperidine-1-carboxylate] | 6.97 |
| Cn1c(OC2CCNCC2)nc(-c2ccncc2F)cc1=O [1.204, 6-(3-Fluoro-pyridin-4-yl)-3-methyl-2-(piperidin-4-yloxy)-3H-pyrimidin-4-one] | 6.61 |
| Cn1c(OC2CCN(c3ccccc3)CC2)nc(-c2ccncn2)cc1=O [1.205, 1-Methyl-2-(1-phenyl-piperidin-4-yloxy)-1H-[4,4′]bipyrimidinyl-6-one] | 7.42 |
| Cc1ccccc1N1CCC(Oc2nc(-c3ccncn3)cc(=O)n2C)CC1 [1.206, 1-Methyl-2-(1-o-tolyl-piperidin-4-yloxy)-1H-[4,4′]bipyrimidinyl-6-one] | 7.22 |
| Cn1c(OC2CCN(c3ccc(-c4ccncc4)cc3)CC2)nc(-c2ccncc2F)cc1=O [1.207, 6-(3-Fluoro-pyridin-4-yl)-3-methyl-2-[1-(4-pyridin-4-yl-phenyl)piperidin-4-yloxy]-3H-pyrimidin-4-one] | 7.49 |
| CC(=O)N1CCN(c2ccc(N3CCC(Oc4nc(-c5ccncn5)cc(=O)n4C)CC3)cc2)CC1 [1.210, 2-{1-[4-(4-Acetyl-piperazin-1-yl)phenyl]piperidin-4-yloxy}-1-methyl-1H-[4,4′]bipyrimidinyl-6-one] | 7.56 |
| Cn1c(OC2CCN(c3ccc(N4CCN(C(=O)OC(C)(C)C)CC4)cc3)CC2)nc(-c2ccncn2)cc1=O [1.211, tert-Butyl 4-{4-[4-(1-methyl-6-oxo-1,6-dihydro-[4,4′]bipyrimidinyl-2-yloxy)piperidin-1-yl]phenyl}piperazine-1-carboxylate] | 6.01 |
| CC(=O)N1CCN(Cc2ccc(N3CCC(Oc4nc(-c5ccncn5)cc(=O)n4C)CC3)cc2)CC1 [1.212, 2-{1-[4-(4-Acetyl-piperazin-1-ylmethyl)phenyl]piperidn-4-yloxy}-1-methyl-1H-[4,4′]bipyrimidinyl-6-one] | 7.19 |
| Cn1c(OC2CCN(c3ccc(CN4CCCCC4)cc3)CC2)nc(-c2ccncc2)cc1=O [1.215, 3-Methyl-2-[1-(4-piperidin-1-ylmethyl-phenyl)piperidin-4-yloxy]-6-pyridin-4-yl-3H-pyrimidin-4-one] | 7.30 |
| Cn1c(OC2CCN(c3ccc(CN4CCCC4=O)cc3)CC2)nc(-c2ccncc2F)cc1=O [1.218, 6-(3-Fluoro-pyridin-4-yl)-3-methyl-2-{1-[4-(2-oxo-pyrrolidin-1-ylmethyl)phenyl]piperidin-4-yloxy}-3H-pyrimidin-4-one] | 6.81 |
| CN(C)Cc1ccc(N2CCC(Oc3nc(-c4ccncn4)cc(=O)n3C)CC2)cc1 [1.220, 2-[1-(4-Dimethylaminomethyl-phenyl)piperidin-4-yloxy]-1-methyl-1H-[4,4′]bipyrimidinyl-6-one] | 7.67 |
| Cn1c(OC2CCN(c3cccc(CN4CCOCC4)c3)CC2)nc(-c2ccncn2)cc1=O [1.221, 1-Methyl-2-[1-(3-morpholin-4-ylmethyl-phenyl)piperidin-4-yloxy]-1H-[4,4′]bipyrimidinyl-6-one] | 7.50 |
| CN1CCN(Cc2cccc(N3CCC(Oc4nc(-c5ccncn5)cc(=O)n4C)CC3)c2)CC1 [1.222, 1-Methyl-2-{1-[3-(4-methyl-piperazin-1-ylmethyl)phenyl]piperidin-4-yloxy}-1H-[4,4′] bipyrimidinyl-6-one] | 7.67 |

Now those with a higher pIC50, led by results:

| pIC50 | SMILES |
| --- | --- |
| 7.71 | Cn1c(OC2CCN(c3ccc(CN4CCOCC4)cc3)CC2)nc(-c2ccncn2)cc1=O [1.213, 1-Methyl-2-[1-(4-morpholin-4-ylmethyl-phenyl)piperidin-4-yloxy]-1H-[4,4′]bipyrimidinyl-6-one] |
| 7.75 | CN1CCN(c2ccc(N3CCC(Oc4nc(-c5ccncn5)cc(=O)n4C)CC3)cc2)CC1 [1.209, 1-Methyl-2-{1-[4-(4-methyl-piperazin-1-yl)phenyl]piperidin-4-yloxy}-1H-[4,4′]bipyrimidinyl-6-one] |
| 7.79 | Cn1c(OC2CCN(c3ccc(CN4CCCCC4)cc3)CC2)nc(-c2ccncn2)cc1=O [1.214, 1-Methyl-2-[1-(4-piperidin-1-ylmethyl-phenyl)piperidin-4-yloxy]-1H-[4,4′]bipyrimidinyl-6-one] |
| 7.92 | Cn1c(OC2CCN(c3ccc(CN4CCCC4)cc3)CC2)nc(-c2ccncn2)cc1=O [1.217, 1-Methyl-2-[1-(4-pyrrolidin-1-ylmethyl-phenyl)piperidin-4-yloxy]-1H-[4,4′]bipyrimidinyl-6-one] |
| 7.93 | Cn1c(OC2CCCN(c3ccccn3)C2)nc(-c2ccncn2)cc1=O (centres unmarked) [1.108, 1-Methyl-2-(1-pyridin-2-yl-piperidin-3-yloxy)-1H-[4,4′]bipyrimidinyl-6-one] |
| 7.96 | Cn1c(OC2CCN(c3ccc(CN4CCCCC4)cc3)CC2)nc(-c2ccncc2F)cc1=O [1.216, 6-(3-Fluoro-pyridin-4-yl)-3-methyl-2-[1-(4-piperidin-1-ylmethyl-phenyl)piperidin-4-yloxy]-3H-pyrimidin-4-one] |
| 7.97 | Cn1c(OC2CCN(c3ccc(N4CCNCC4)cc3)CC2)nc(-c2ccncn2)cc1=O [1.208, 1-Methyl-2-[1-(4-piperazin-1-yl-phenyl)-piperidin-4-yloxy]-1H-[4,4′]bipyrimidinyl-6-one] |
| 8.05 | Cn1c(OC2CCCN(c3cccc(F)c3)C2)nc(-c2ccncn2)cc1=O (centres unmarked) [1.104, 2-[1-(3-Fluoro-phenyl)piperidin-3-yloxy]-1-methyl-1H-[4,4′] bipyrimidinyl-6-one] |
| 8.08 | Cn1c(OC2CCN(c3ccc(CN4Cc5ccccc5C4)cc3)CC2)nc(-c2ccncn2)cc1=O [1.219, 2-{1-[4-(1,3-Dihydro-isoindol-2-ylmethyl)phenyl]piperidin-4-yloxy}-1-methyl-1H-[4,4′]bipyrimidinyl-6-one] |
| 8.82 | COc1cccc(N2CCCC(Oc3nc(-c4ccncn4)cc(=O)n3C)C2)c1 (centres unmarked) [1.106, 2-[1-(3-Methoxy-phenyl)piperidin-3-yloxy]-1-methyl-1H-[4,4′]bipyrimidinyl-6-one] |
